ChEMBL document CHEMBL5674860, “Optimized Dual-Glo Assay to identify co-culture-induced drug vulnerabilities in 3D CRC models” (2024)

How the values were obtained:
Format in all cases: functional, Homo sapiens
Parameters in all cases: dose or concentration left out as unconfirmed
Colon cancer organoid [1] = test: Optimized Dual-Glo assay to identify co-culture induced drug vulnerabilities using donated chemical probes and chemogenomics kinase set in O06 CRC organoid and F06 CAF mono and co-culture. […] Cell viability is reported both mono and co-culture models.
Colon cancer organoid [2] = test: Optimized Dual-Glo assay to identify co-culture induced drug vulnerabilities using donated chemical probes and chemogenomics kinase set in O14 CRC organoid and F14 CAF mono and co-culture. […] Cell viability is reported both mono and co-culture models.
Colon cancer organoid [3] = test: Optimized Dual-Glo assay to identify co-culture induced drug vulnerabilities using donated chemical probes and chemogenomics kinase set in O20 CRC organoid and F20 CAF mono and co-culture. […] Cell viability is reported both mono and co-culture models.
[4] = Culture type Co-Culture, Transduced with Lucferase2-P2A-EGFP lentivirus
[5] = Culture type Co-Culture, Transduced with Renilla-dsRed lentivirus
[6] = Culture type Mono-Culture, Transduced with Lucferase2-P2A-EGFP lentivirus
[7] = Culture type Mono-Culture, Transduced with Renilla-dsRed lentivirus

| SMILES | Cell Viability (Colon cancer organoid [1]; [4]) [%] | Cell Viability (Colon cancer organoid [1]; [5]) [%] | Cell Viability (Colon cancer organoid [1]; [6]) [%] | Cell Viability (Colon cancer organoid [1]; [7]) [%] | Cell Viability (Colon cancer organoid [2]; [4]) [%] | Cell Viability (Colon cancer organoid [2]; [5]) [%] | Cell Viability (Colon cancer organoid [2]; [6]) [%] | Cell Viability (Colon cancer organoid [2]; [7]) [%] | Cell Viability (Colon cancer organoid [3]; [4]) [%] | Cell Viability (Colon cancer organoid [3]; [5]) [%] | Cell Viability (Colon cancer organoid [3]; [6]) [%] | Cell Viability (Colon cancer organoid [3]; [7]) [%] |
| --- | --- | --- | --- | --- | --- | --- | --- | --- | --- | --- | --- | --- |
| CN(C)C(=O)N1CC[C@H](NC2=Nc3cc(F)ccc3N(CC(F)F)c3ccc(Cl)cc32)C1 | 158.864 | 159.783 | 102.875 | 125.077 | 130.518 | 98.5664 | 108.387 | 90.4728 | 71.357 | 98.2431 | 112.934 | 109.328 |
| Cc1sc2c(c1C)C(c1ccc(Cl)cc1)=N[C@H](CC(=O)OC(C)(C)C)c1nnc(C)n1-2 | 107.283 | 109.974 | 69.4816 | 97.8447 | 111.301 | 136.501 | 108.464 | 107.072 | 98.7176 | 113.657 | 118.396 | 90.6965 |
| O=C(NC[C@H](O)CN1CCc2ccccc2C1)c1ccnc(NC2CCC2)c1 | 33.1368 | 110.399 | 67.3977 | 84.1228 | 29.3409 | 134.373 | 40.919 | 88.6314 | 42.8317 | 143.569 | 53.6752 | 63.4646 |
| Cc1c(NC(=O)c2ccc(C(C)(C)C)cc2)cccc1-c1cn(C)c(=O)c(Nc2ccc(C(=O)N3CCOCC3)cc2)n1 | 105.279 | 113.435 | 83.7541 | 97.4758 | 85.4676 | 81.7664 | 100.184 | 91.8671 | 109.579 | 88.3582 | 122.68 | 92.088 |
| CN([C@@H]1CCc2c(CC(=O)O)c3ccccc3n2C1)S(=O)(=O)c1ccc(F)cc1 [MK-7246] | 127.259 | 149.477 | 87.9847 | 110.238 | 76.0592 | 112.144 | 82.2127 | 107.31 | 94.6909 | 109.932 | 110.185 | 99.3239 |
| CN1CCN(c2ccnc(NCCc3ccccc3)n2)CC1 [TP-040n] | 79.4477 | 81.2059 | 106.155 | 134.56 | 93.1561 | 99.6193 | 147.697 | 101.671 | 67.1911 | 97.5889 | 115.175 | 123.14 |
| O=C1NC(c2ccccn2)Sc2ccccc21 (stereo unspecified) [BTZO-4] | 120.289 | 168.274 | 120.842 | 96.0026 | 61.6346 | 107.214 | 121.016 | 104.244 | 109.35 | 85.8309 | 124.511 | 93.402 |
| Cc1nccc(COC(=O)N2C[C@@H]3[C@@H](CNC(=O)c4ccc5[nH]nnc5c4)[C@@H]3C2)n1 [BI 3017] | 136.883 | 128.292 | 95.2629 | 74.0867 | 93.935 | 119.587 | 137.729 | 94.2589 | 107.028 | 99.2728 | 143.356 | 100.924 |
| C=CC(=O)Nc1ccc2[nH]c(=O)n(C3CCN(Cc4ccc(-c5ccc6c(c5)NC(=O)CO6)cc4)CC3)c2c1 [RL2578] | 88.4189 | 104.707 | 87.6184 | 83.8435 | 109.086 | 76.9187 | 101.444 | 81.1144 | 101.172 | 98.7435 | 76.3776 | 83.481 |
| Cc1c(NC(=O)c2cc(C(N)=O)nc3cc(F)ccc23)c(C(F)(F)F)nn1Cc1ccc(C#N)cc1 [BAY-876] | 9.2808 | 424.118 | 4.84 | 74.218 | 22.1239 | 120.557 | 31.4127 | 63.4994 | 13.842 | 190.785 | 15.2674 | 77.5911 |
| COc1ccccc1S(=O)(=O)Nc1ccc2c(c1)CN(C)C(=O)N2 | 75.1061 | 112.248 | 98.6756 | 116.533 | 98.1337 | 101.069 | 91.805 | 99.3977 | 111.384 | 99.8859 | 75.6376 | 98.229 |
| O=C(NCc1ccccc1)c1ccc(S(=O)(=O)NCc2ccccc2)cc1 | 120.089 | 107.944 | 199.391 | 148.571 | 77.1762 | 97.8485 | 125.216 | 99.6349 | 89.1581 | 96.8328 | 97.877 | 137.118 |
| COc1cc(N2CCC(O)CC2)ccc1Nc1cc(Nc2ccccc2S(=O)(=O)C(C)C)c2cc[nH]c2n1 | 85.241 | 81.2438 | 122.712 | 109.159 | 73.6565 | 103.778 | 68.2856 | 78.3072 | 108.471 | 84.332 | 70.9146 | 86.2422 |
| CN(C)C(=O)c1sc2nc(N3CCC(S(C)(=O)=O)CC3)cc(C(F)(F)F)c2c1N [BI-5026] | 108.851 | 103.89 | 124.761 | 97.708 | 89.3398 | 95.8994 | 89.8333 | 92.7462 | 82.5801 | 112.021 | 96.6036 | 91.1442 |
| CNC(=O)c1cc(C(=O)N[C@H]2[C@@H]3COC[C@@H]32)cc2c1O[C@@H](CF)[C@@H]2c1ccccc1 [GSK943] | 83.6271 | 130.888 | 89.2117 | 119.155 | 119.043 | 94.0726 | 104.923 | 119.987 | 106.252 | 108.354 | 98.6986 | 128.773 |
| Cc1cnc(Nc2ccc(F)cc2Cl)nc1-c1c[nH]c(C(=O)N[C@H](CO)c2cccc(Cl)c2)c1 | 51.8597 | 63.6391 | 9.819 | 57.8689 | 10.9302 | 34.4005 | 7.352 | 19.5504 | 6.951 | 113.857 | 5.763 | 41.0342 |
| C[C@@H]1CCc2ncc(F)cc2[C@H]2CCCN2c2ccn3ncc(c3n2)C(=O)N1 [SELITRECTINIB] | 101.733 | 118.761 | 174.799 | 120.583 | 80.4223 | 107.034 | 125.619 | 100.351 | 166.265 | 73.3915 | 102.231 | 92.0834 |
| CCn1c(-c2nc3cc(C(=O)N4CCCC(N)C4)ccc3n2C)cc2ccccc21.Cl (stereo unspecified) | 115.054 | 117.733 | 118.281 | 112.415 | 85.5466 | 126.887 | 120.87 | 100.943 | 132.709 | 136.72 | 106.473 | 96.2054 |
